Drawing on US9023852B2, “1, 2, 4-thiadiazol-5-ylpiperazine derivatives useful in the treatment of neurodegenerative diseases” (Remynd NV, priority 2011, dated 2015), this text covers microsomal CLint and EC50 for 30 compounds.

Molecules are shown by their SMILES.

System in one series: not listed separately
The series is described as follows: Microsomal stability assay (intrinsic clearance), human liver microsomes. Type of series: in vitro ADME. The note with it: human in vitro microsomes, first value of Hum/Rat pair. The protocol: (§1) Microsomal Stability Testing—Assay Description
(§2) The microsomal stability assay measures the rate of disappearance of a test compound from an incubation containing human or animal liver microsomes and metabolic cofactors (typically NADPH). The assay is primarily used for ranking the relative CYP-mediated metabolism propensities of compounds within a chemical series and as a guide to selecting sufficiently stable compounds for pharmacokinetics and pharmacodynamics experiments. [In addition to CYPs, microsomally located enzymes which also make use of NADPH (such as […]) and those which require no cofactors (such as carboxylesterases) are active.]
(§3) Incubations are performed in 96-well deep-well plates with a final incubation volume of 600 μL. Incubations contain (finally) 1-2 μM test compound, 0.5 mg/mL liver microsomes (typically human, rat or mouse) and NADPH regenerating system. 50 μL aliquots are removed after 1, 3, 6, 9, 15, 25, 35 and 45 minutes and quenched in 150 μL acetonitrile containing internal standard. Samples are then cooled and centrifuged before analysis by LC-MS/MS.
(§4) Log peak area ratio (test compound peak area/internal standard peak area) is plotted against incubation time and a linear fit made to the data with emphasis upon the initial rate of compound disappearance. The slope of the fit is then used to calculate the intrinsic clearance: Clint(μL/min/mg)=−slope(min^−1)*1000/[protein concentration (mg/mL)]
One may read the microsomal CLint as a measure of how fast metabolising enzymes remove a compound, apart from limits set by blood flow. Turning to `Cc1ccc(-c2nsc(N3CCN(Cc4ccc5c(c4)OCO5)CC3)n2)cc1` [Example 2, 1-Benzo[1,3]dioxol-5-ylmethyl-4-(3-p-tolyl-[1,2,4]thiadiazol-5-yl)-piperazine], the microsomal CLint worked out at 19 µL/min/mg.

Consider `Fc1cccc(-c2nsc(N3CCN(CCc4ccc(Cl)cc4)CC3)n2)c1` [Example 88, 1-[2-(4-Chloro-phenyl)-ethyl]-4-[3-(3-fluoro-phenyl)-[1,2,4]thiadiazol-5-yl]-piperazine], for which the intrinsic metabolic clearance (microsomal CLint) is 12 µL/min/mg.

Consider `Fc1ccc(Cc2nsc(N3CCN(Cc4ccc5c(c4)OCO5)CC3)n2)cc1` [reference compound], for which the microsomal CLint came to 39 µL/min/mg.

Compound `O=S(=O)(c1ccc(OC(F)(F)F)cc1)N1CCN(c2nc(Cc3ccc(F)cc3)ns2)CC1` [reference compound] came in with a microsomal CLint of 46 µL/min/mg.

System in a further series: not listed separately
The series is described as follows: Microsomal stability assay (intrinsic clearance), rat liver microsomes. The note with it: rat in vitro microsomes, second value of Hum/Rat pair. Format: in vitro ADME. The protocol:
as §1, §2, §3, §4
On the technique in general: Microsomes from liver hold many membrane-bound enzymes, among them those of drug oxidation.
For the compound `Cc1ccc(-c2nsc(N3CCN(Cc4ccc5c(c4)OCO5)CC3)n2)cc1` [Example 2, 1-Benzo[1,3]dioxol-5-ylmethyl-4-(3-p-tolyl-[1,2,4]thiadiazol-5-yl)-piperazine], the microsomal CLint is 48 µL/min/mg.

`Fc1cccc(-c2nsc(N3CCN(CCc4ccc(Cl)cc4)CC3)n2)c1` [Example 88, 1-[2-(4-Chloro-phenyl)-ethyl]-4-[3-(3-fluoro-phenyl)-[1,2,4]thiadiazol-5-yl]-piperazine] gave a microsomal CLint of 23 µL/min/mg. This microsomal CLint is about 2.1-fold lower than that of the compound before.

`Fc1ccc(Cc2nsc(N3CCN(Cc4ccc5c(c4)OCO5)CC3)n2)cc1` [reference compound] showed a microsomal CLint of 482 µL/min/mg.

With `O=S(=O)(c1ccc(OC(F)(F)F)cc1)N1CCN(c2nc(Cc3ccc(F)cc3)ns2)CC1` [reference compound], the microsomal CLint came to 103 µL/min/mg.

Another series has as its system M17—3TAU(P301L) cells. The series is described as follows: Neuroblastoma tauopathy model: inhibition of TAU-induced cytotoxicity (LDH). Type of series: cell-based. The note with it: Homo sapiens, 168 h; inhibition of TAU-induced toxicity (LDH), 7 days differentiation with retinoic acid. An outline of the steps:
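BE-M17 neuroblastoma cells stably expressing human TAU-P301L, differentiated with RA (2.5 μM in added medium) for 7 days at 37 °C with compounds at a range of concentrations. Cytotoxicity as supernatant LDH over total LDH (Cytotox 96); EC50 from dose-dependent inhibition curve.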
As a reminder, the EC50 is the midpoint of the concentration-response curve. High values mean lower potency in that assay, low ones higher potency in that assay. `Cc1ccc(-c2nsc(N3CCN(Cc4ccc5c(c4)OCO5)CC3)n2)cc1` [Example 2, 1-Benzo[1,3]dioxol-5-ylmethyl-4-(3-p-tolyl-[1,2,4]thiadiazol-5-yl)-piperazine] yielded an EC50 of 587 nM.

Regarding `Fc1cccc(-c2nsc(N3CCN(CCc4ccc(Cl)cc4)CC3)n2)c1` [Example 88, 1-[2-(4-Chloro-phenyl)-ethyl]-4-[3-(3-fluoro-phenyl)-[1,2,4]thiadiazol-5-yl]-piperazine], the EC50 turned out to be 121 nM. This EC50 lies about 4.9-fold lower than the previous one.

For the compound `Fc1ccc(-c2nsc(N3CCN(CCc4cccc(C(F)(F)F)c4)CC3)n2)cc1F` [Example 158, 3-(3,4-difluorophenyl)-5-(4-(3-(trifluoromethyl)phenethyl)piperazin-1-yl)-1,2,4-thiadiazole], it took 998 nM to reach a half-maximal effect (EC50).

For `FC(F)(F)c1cccc(CCN2CCN(c3nc(-c4cc(Cl)ccn4)ns3)CC2)c1` [Example 159, 3-(4-chloropyridin-2-yl)-5-(4-(3-(trifluoromethyl)phenethyl)piperazin-1-yl)-1,2,4-thiadiazole], the EC50 worked out at 119 nM.

The compound `Fc1ccc(CCN2CCN(c3nc(-c4cncc(Cl)c4)ns3)CC2)cc1F` [Example 160, 3-(5-chloropyridin-3-yl)-5-(4-(3,4-difluorophenethyl)piperazin-1-yl)-1,2,4-thiadiazole] showed an EC50 of 0.4 nM.

On to `Clc1ccc(-c2nsc(N3CCN(CCC4CCCCC4)CC3)n2)cc1` [Example 161, 3-(4-chlorophenyl)-5-(4-(2-cyclohexylethyl)piperazin-1-yl)-1,2,4-thiadiazole], for which the midpoint of the response, the EC50, lay at 39.6 nM. Compared with the last compound, the EC50 is about 99-fold higher.

Compound `Clc1cccc(-c2nsc(N3CCN(CCC4CCCCC4)CC3)n2)c1` [Example 162, 3-(3-chlorophenyl)-5-(4-(2-cyclohexylethyl)piperazin-1-yl)-1,2,4-thiadiazole] registered an EC50 of 3.3 nM.

`Clc1cncc(-c2nsc(N3CCN(CCN4CCCCC4)CC3)n2)c1` [Example 163, 3-(5-chloropyridin-3-yl)-5-(4-(2-(piperidin-1-yl)ethyl)piperazin-1-yl)-1,2,4-thiadiazole] registered an EC50 of 13 nM.

The compound `Fc1ccc(-c2nsc(N3CCN(CCC4CCOCC4)CC3)n2)cc1F` [Example 164, 3-(3,4-difluorophenyl)-5-(4-(2-(tetrahydro-2H-pyran-4-yl)ethyl)piperazin-1-yl)-1,2,4-thiadiazole] gave a 50% effective concentration (EC50) of 3.4 nM. This EC50 lies about 3.8-fold lower than the previous one.

The compound `Clc1cccc(-c2nsc(N3CCN(CCC4CCOCC4)CC3)n2)c1` [Example 165, 3-(3-chlorophenyl)-5-(4-(2-(tetrahydro-2H-pyran-4-yl)ethyl)piperazin-1-yl)-1,2,4-thiadiazole] yielded an EC50 of 1.1 nM. Against the preceding compound, the EC50 is about 3.1-fold lower.

Compound `Clc1cncc(-c2nsc(N3CCN(CCC4CCOCC4)CC3)n2)c1` [Example 166, 3-(5-chloropyridin-3-yl)-5-(4-(2-(tetrahydro-2H-pyran-4-yl)ethyl)piperazin-1-yl)-1,2,4-thiadiazole] returned an EC50 of 0.7 nM.

As to `Clc1ccc(-c2nsc(N3CCN(CCC4CCOCC4)CC3)n2)cc1` [Example 167, 3-(4-chlorophenyl)-5-(4-(2-(tetrahydro-2H-pyran-4-yl)ethyl)piperazin-1-yl)-1,2,4-thiadiazole], the response was half-maximal at 5.9 nM (EC50).

Turning to `COc1cc(CCN2CCN(c3nc(-c4ccnc(Cl)c4)ns3)CC2)ccn1` [Example 168, 3-(2-chloropyridin-4-yl)-5-(4-(2-(2-methoxypyridin-4-yl)ethyl)piperazin-1-yl)-1,2,4-thiadiazole], the EC50 came to 1.5 nM.

As for `Clc1ccc(CCN2CCN(c3nc(-c4ccnc(Cl)c4)ns3)CC2)cc1` [Example 169, 5-(4-(4-chlorophenethyl)piperazin-1-yl)-3-(2-chloropyridin-4-yl)-1,2,4-thiadiazole], a half-maximal effect (EC50) was put at 10.4 nM.

`Clc1cc(-c2nsc(N3CCN(CCc4ccccc4)CC3)n2)ccn1` [Example 170, 3-(2-chloropyridin-4-yl)-5-(4-phenethylpiperazin-1-yl)-1,2,4-thiadiazole] yielded an EC50 of 0.7 nM. Compared with the last compound, the EC50 is about 15-fold lower.

On to `Cc1cc(-c2nsc(N3CCN(CCc4ccccc4)CC3)n2)ccn1` [Example 171, 3-(2-methylpyridin-4-yl)-5-(4-phenethylpiperazin-1-yl)-1,2,4-thiadiazole], for which it took 2.4 nM to reach a half-maximal effect (EC50).

`COc1cc(CCN2CCN(c3nc(-c4ccnc(C)c4)ns3)CC2)ccn1` [Example 172, 5-(4-(2-(2-methoxypyridin-4-yl)ethyl)piperazin-1-yl)-3-(2-methylpyridin-4-yl)-1,2,4-thiadiazole]: the EC50 came to 14.4 nM.

`Cc1cc(-c2nsc(N3CCN(CCc4ccccc4)CC3)n2)cnn1` [Example 173, 3-(6-methylpyridazin-4-yl)-5-(4-phenethylpiperazin-1-yl)-1,2,4-thiadiazole] showed an EC50 of 2.9 nM.

For `Cc1cc(-c2nsc(N3CCN(CCc4ccc(F)cc4)CC3)n2)cnn1` [Example 174, 5-(4-(4-fluorophenethyl)piperazin-1-yl)-3-(6-methylpyridazin-4-yl)-1,2,4-thiadiazole], the EC50 turned out to be 12.6 nM.

`Cc1cc(-c2nsc(N3CCN(CCc4ccc(F)c(F)c4)CC3)n2)cnn1` [Example 175, 5-(4-(3,4-difluorophenethyl)piperazin-1-yl)-3-(6-methylpyridazin-4-yl)-1,2,4-thiadiazole] gave an EC50 of 13.4 nM.

The compound `COc1cc(CCN2CCN(c3nc(-c4cnnc(C)c4)ns3)CC2)ccn1` [Example 176, 5-(4-(2-(2-methoxypyridin-4-yl)ethyl)piperazin-1-yl)-3-(6-methylpyridazin-4-yl)-1,2,4-thiadiazole] came in with an EC50 of 19.5 nM.

For the compound `COc1ccc(CCN2CCN(c3nc(-c4cnnc(C)c4)ns3)CC2)cc1` [Example 177, 5-(4-(4-methoxyphenethyl)piperazin-1-yl)-3-(6-methylpyridazin-4-yl)-1,2,4-thiadiazole], a half-maximal response (EC50) required 1 nM.

Compound `Cc1ncc(-c2nsc(N3CCN(CCc4ccccc4)CC3)n2)cn1` [Example 178, 3-(2-methylpyrimidin-5-yl)-5-(4-phenethylpiperazin-1-yl)-1,2,4-thiadiazole] came in with an EC50 of 13.2 nM.

`COc1ccc(CCN2CCN(c3nc(-c4cnc(C)nc4)ns3)CC2)cc1` [Example 179, 5-(4-(4-methoxyphenethyl)piperazin-1-yl)-3-(2-methylpyrimidin-5-yl)-1,2,4-thiadiazole]: the response was half-maximal at 3.4 nM (EC50). Against the preceding compound, the EC50 is about 3.9-fold lower.

`Cc1ncc(-c2nsc(N3CCN(CCc4ccc(Cl)cc4)CC3)n2)cn1` [Example 180, 5-(4-(4-chlorophenethyl)piperazin-1-yl)-3-(2-methylpyrimidin-5-yl)-1,2,4-thiadiazole]: a half-maximal response (EC50) required 129 nM. This EC50 lies about 38-fold higher than the previous one.

`Cc1ncc(-c2nsc(N3CCN(CCc4ccc(F)cc4)CC3)n2)cn1` [Example 181, 5-(4-(4-fluorophenethyl)piperazin-1-yl)-3-(2-methylpyrimidin-5-yl)-1,2,4-thiadiazole] came in with an EC50 of 31.6 nM.

Compound `Cc1ncc(-c2nsc(N3CCN(CCc4ccc(F)c(F)c4)CC3)n2)cn1` [Example 182, 5-(4-(3,4-difluorophenethyl)piperazin-1-yl)-3-(2-methylpyrimidin-5-yl)-1,2,4-thiadiazole] returned an EC50 of 192 nM. This EC50 is about 6.1-fold higher than that of the compound before.

In turn, `COc1cc(CCN2CCN(c3nc(-c4cnc(C)nc4)ns3)CC2)ccn1` [Example 183, 5-(4-(2-(2-methoxypyridin-4-yl)ethyl)piperazin-1-yl)-3-(2-methylpyrimidin-5-yl)-1,2,4-thiadiazole] yielded an EC50 of 152 nM. This EC50 and that of the compound before are within 1.5-fold of each other.
